From patent publication US20050209345A1, “Lymphatic drug delivery system” (priority 2001, published 2005)
Where two headings read alike, the source gives them in different places.

Assays:
[1] = conscious rats, cited from earlier work
[2] = dog, in vivo, po
Protocol: (§1) All surgical and experimental procedures were performed in accordance with the guidelines and approval of the local Institutional Animal Experimentation Ethics Committee. Studies were conducted in male greyhound dogs (28-35 kg), and their health status was verified by a veterinarian prior to the study. Prior to surgery, each dog was fed a small lipid meal to facilitate identification of the thoracic duct. […] Each dog received intravenous infusion of Lactated Ringer's solution (300 mL/h) during surgery, and a post-operative injection of antibiotic (cephazolin, 20 mg/kg) and analgesic (carprofen, 4 mg/kg).
(§2) The ventral abdomen was firstly clipped and prepared for aseptic surgery. A 5 cm long ventral midline laparotomy was performed to allow a loop of jejunum to be exteriorised. A 133 mm 16 gauge cannula was then inserted into a jejunal vein to the level of the portal vein. The cannula was stabilised in both the portal and jejunal veins with a ligature of 3/0 silk to the jejunal vein and a minimal volume extension tube, filled with heparinised saline, was then attached and externalised through a separate stab incision in the left flank and stabilised with sutures. The laparotomy wound was closed in anatomical layers with 3/0 polydioxinone sutures. The position of the cannula in the portal vein was confirmed by a portal venogram following a 10 mL injection of a contrast dye (Iohexol), and cannula patency was maintained by small volume flushing with heparinised saline (1 U/mL).
(§3) The left ventral neck area and cranial thorax was clipped and prepared for aseptic surgery. A curved incision was made over the left external jugular vein and the vein was then dissected from the surrounding tissues to the axillary vein. At the junction of the internal jugular and brachiocephalic veins, the thoracic duct ampulla was identified by its whitish appearance This was then ligated at the point of entrance into the brachiocephalic vein and all tributaries converging to the thoracic duct were ligated to ensure the return of lymph through the main lymphatic canal. […]

[3] = Thoracic lymph duct and portal vein cannulated greyhound dog study: lymphatic transport of halofantrine and triglyceride, systemic availability; conditions: fed dogs, IV 2 mg/kg, over 12 h, mean +/- sd, n = 3
Protocol: as §1, §2, §3

[4] = in soybean oil; cited from earlier work
[5] = rats, oral, cited from earlier work
[6] = rats; cited from earlier work
[7] = rats, soybean emulsion, 24 h post dosing; cited from earlier work
[8] = in vivo; cited from earlier work

## CCCCCCCCCCC(C)(C)C(=O)Nc1c(OC)cc(OC)cc1OC [Cl-976]
[1]; over 14 h
  total amount transported in lymph as percent of dose, lipid-based emulsion compared with suspension: 7 times
[1]
  absolute amount of drug transported lymphatically: < 1%

## CCCCN(CCCC)CCC(O)c1cc2c(Cl)cc(Cl)cc2c2cc(C(F)(F)F)ccc12 (centres unmarked) [Hf base]
[2]
  Cum Hf transport in lymph (% dose): 1.3 +/− 0.7 % dose
  Transport into syst circulation (% dose): 30.2 +/− 18.7 % dose

## CCCCN(CCCC)CCC(O)c1cc2c(Cl)cc(Cl)cc2c2cc(C(F)(F)F)ccc12 (centres unmarked) [Hf, halofantrine]
[3]
  Cum Hf transport in lymph (% dose): 1.5 +/− 0.2 % dose

## CC(C)CCC[C@@H](C)[C@H]1CC[C@H]2[C@@H]3[C@@H](C)C[C@H]4N(C)C(=O)CC[C@]4(C)[C@H]3CC[C@]12C [MK-386]
[4]
  lipid solubility: > 80 mg/mL
[5]; 6 h post-dosing
  rank order of total amount transported into the mesenteric lymph by formulation: aqueous suspension>mixed lipid/surfactant system>soybean oil
[5]; all three formulations
  levels of radioactivity in the lymph compared with the portal blood: up to 80 fold

## COC1(O[C@H]2CC[C@H]3[C@@H]4CC[C@H]5C[C@@H]6S[C@@H]6C[C@]5(C)[C@H]4CC[C@]23C)CCCC1 [mepitiostane]
[6]
  extent of lymphatic transport, polysorbate 80 micellar solution versus triglyceride lipid vehicle: no significant differences

## Cc1ccc2oc(N[C@@H](CC3CCCCC3)c3ccccn3)nc2c1 [ontazolast]
[7]
  total amount of lymphatically transported ontazolast, increase versus aqueous based suspension: ~50 fold

## CCCCCCCCCCCCCCCC(=O)OC/C=C(C)/C=C/C=C(C)/C=C/C1=C(C)CCCC1(C)C [retinyl palmitate]
[8]
  lymphatic transport, aqueous polysorbate 80 micellar solution compared with lipid solution: two-fold increase
